The test system of experiment [1] is tubulin acetylation (HDAC6). Put plainly: Western blotting of tubulin acetylation in 4TO7 cells. The class given is cell-based, mouse. The following applies: 6 h, western blot. Here is the method:
The hybrids were assessed to determine their HDACi and VDR agonist activity as well as their antiproliferative properties relative to DK-406. HDACi activity was assessed in vitro using an acetylated lysine substrate that releases a fluorescent reporter upon HDACi deacetylation and subsequent trypsin digestion. Increasing sidechain length of pyrimidine hybrids enhanced the potency of HDAC6 inhibition, with several compounds inhibiting HDAC6 with a sub-micromolar IC50, similar to that of DK-406 (Fig. 4a). […] Next, we analyzed the effects of compounds on levels of H3K9 and H3K27 acetylation in 4TO7 cells, which are controlled by class I HDACs[29],[30]. […] We also tested the capacity of analogues to induce tubulin acetylation, controlled by class II enzyme HDAC6[32], in 4TO7 cells. […]
Figure 4 (a) Results of in vitro assays for inhibition of purified HDAC2 and HDAC6 by DK-406 and heterocyclic hybrids as measured by inhibition of deacetylation of a fluorometric substrate (see Methods for details). […]
After treatments, 4T07 cells were solubilized in Lysis Buffer (20 mM Tris, pH 8, 150 mM NaCl, 1% Triton X-100, 3,5 mM SDS, 13 mM deoxycholic acid) and proteins extracted were separated on a 4–15% Tris/Glycine/SDS gel (BIO RAD). […] Signal was detected using Clarity ECL chemiluminescent substrates (Bio-Rad) and ChemiDoc Imaging System from the same company was used to quantify the intensity of bands. […]
On the technique in general: Immunoblotting shows a protein as a band on a membrane.

Another experiment deals with 4TO7 cells. Put plainly: RNAseq gene expression profiling in 4TO7 cells. It is filed as cell-based, mouse. The following applies: relative to control. Here is the method: Cells were treated for 6 h to focus more on genes directly regulated by the VDR, or for 24 or 48 h to gain insight into longer-term effects on gene expression.
McGill Genome Centre performed a quality control before sequencing in paired-end at 50 M reads by Illumina NovaSeq 6000 S4 PE100. Sets of genes regulated in the different conditions were sent to us and downstream analysis were performed.
Table S1 and Table S2 : See Excel files with RNAseq results and analysis
48 hours prior to RNA extraction. Samples were prepared in triplicate and run on Illumina NovaSeq 6000 S4
PE100. For assessing differential gene expression for RNAseq data, the LIMMA package inR was used.
RNAseq results and statistical analyses from D, S, S+D, DK-406, and AM-193 conditions measured relative to
AM-193 for 6 or 24 hours prior to RNA extraction . Samples were prepared in triplicate and run on Illumina
NovaSeq 6000 S4 PE100. For assessing differential gene expression for RNAseq data, the LIMMA package in R was […]

Where [2] appears, read: 6 h, RNAseq Supplemental table 1.
Setting [3] is: 6 h, RNAseq Supplemental table 2, 1 µM AM-193, 10 µM DK-406, 100 nM 1,25D and SAHA.
Setting [4] is: RNAseq Supplemental table 2, 1 µM AM-193, 10 µM DK-406, 100 nM 1,25D and SAHA.
Where [5] appears, read: 48 h, RNAseq Supplemental table 1.

This note sets out measurements from article PMC9038752, “Molecular mechanisms of bifunctional vitamin D receptor agonist-histone deacetylase inhibitor hybrid molecules in triple-negative breast cancer” (Scientific Reports, 2022).

In the case of `CCC(CC)(c1ccc(C(=O)NCCCCCC(=O)NO)cc1)c1ccc(OCC(O)C(C)(C)C)c(C)c1` (centres unmarked) [DK-406], the tubulin acetylation entry in experiment [1] (10^–5 M) is recorded as “consistently induced tubulin acetylation”. Also, in the experiment on 4TO7 cells (setting [2]), the “Aaas 6h Log Fold” value was 1.019, the “Aacs 6h Log Fold” value is recorded as 1.048, the “Aaed1 6h Log Fold” value was -1.030 and the “Aagab 6h Log Fold” value was -1.033. Also, in the experiment on 4TO7 cells (setting [2]), the “Aak1 6h Log Fold” value was 1.122. In addition, in the experiment on 4TO7 cells (setting [3]), the “Aaas 6h Log Fold” value is listed as 0.00118, the “Aacs 6h Log Fold” value is listed as -0.179, the “Aagab 6h Log Fold” value is recorded as -0.076 and the “Aak1 6h Log Fold” value amounted to 0.090. In addition, the “Aamdc 6h Log Fold” value in the experiment with 4TO7 cells (setting [3]) is -0.107. Moreover, in the experiment with 4TO7 cells (setting [4]), the “Aaas 24h Log Fold” value is reported as -0.047, the “Aacs 24h Log Fold” value is listed as 0.139, the “Aagab 24h Log Fold” value was 0.108 and the “Aak1 24h Log Fold” value is 0.086. Moreover, in the experiment with 4TO7 cells (setting [4]), the “Aamdc 24h Log Fold” value is listed as -0.190. In addition, in the experiment on 4TO7 cells (setting [5]), the “Aaas 48h Log Fold” value is listed as -1.331, the “Aacs 48h Log Fold” value is 1.275, the “Aaed1 48h Log Fold” value is given as -1.421 and the “Aagab 48h Log Fold” value was determined as 1.489. The “Aak1 48h Log Fold” value in the experiment with 4TO7 cells (setting [5]) is -1.002.
Regarding `CCC(CC)(c1ccc(OCCCCCC(=O)NO)cc1)c1ccc(OCC(O)C(C)(C)C)c(C)n1` (centres unmarked) [AM-193], the tubulin acetylation entry in experiment [1] (10^–6 M) is recorded as “consistently induced tubulin acetylation”. In the experiment with 4TO7 cells (setting [3]), the “Aaas 6h Log Fold” value was -0.023, the “Aacs 6h Log Fold” value came to 0.016, the “Aagab 6h Log Fold” value is on record as 0.124 and the “Aak1 6h Log Fold” value is recorded as 0.035. Besides, in the experiment with 4TO7 cells (setting [3]), the “Aamdc 6h Log Fold” value is -0.120. Moreover, in the experiment on 4TO7 cells (setting [4]), the “Aaas 24h Log Fold” value was -0.051, the “Aacs 24h Log Fold” value worked out at 0.142, the “Aagab 24h Log Fold” value is reported as 0.131 and the “Aak1 24h Log Fold” value came out at 0.036. In the experiment on 4TO7 cells (setting [4]), the “Aamdc 24h Log Fold” value was -0.210.
